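Assay format: 96-well plates, 48-hour exposure. TGI: concentration producing complete growth inhibition.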
Assays:
Assay in all cases: NCI-60 cell line screen, 48 h
OVCAR-8 ovarian = test system: OVCAR-8 ovarian
HOP-62 NSCLC = test system: HOP-62 NSCLC
OVCAR-4 ovarian = test system: OVCAR-4 ovarian
RXF 393 renal = test system: RXF 393 renal
HCT-15 colon = test system: HCT-15 colon
K-562 leukemia = test system: K-562 leukemia
OVCAR-5 ovarian = test system: OVCAR-5 ovarian
KM12 colon = test system: KM12 colon
RPMI-8226 leukemia = test system: RPMI-8226 leukemia
SNB-19 CNS = test system: SNB-19 CNS
SR leukemia = test system: SR leukemia
HT29 colon = test system: HT29 colon
CAKI-1 renal = test system: CAKI-1 renal
HCC-2998 colon = test system: HCC-2998 colon
BT-549 breast = test system: BT-549 breast
DU-145 prostate = test system: DU-145 prostate
MOLT-4 leukemia = test system: MOLT-4 leukemia
IGROV1 ovarian = test system: IGROV1 ovarian
NCI-H460 lung = test system: NCI-H460 lung
UACC-257 melanoma = test system: UACC-257 melanoma
ACHN renal = test system: ACHN renal
NCI/ADR-RES ovarian = test system: NCI/ADR-RES ovarian
PC-3 prostate = test system: PC-3 prostate
SN12C renal = test system: SN12C renal
MCF7 breast = test system: MCF7 breast
CCRF-CEM leukemia = test system: CCRF-CEM leukemia
MDA-N = test system: MDA-N
SF-295 CNS = test system: SF-295 CNS
SW-620 colon = test system: SW-620 colon
MDA-MB-435 = test system: MDA-MB-435
SK-MEL-5 melanoma = test system: SK-MEL-5 melanoma
OVCAR-3 ovarian = test system: OVCAR-3 ovarian
MDA-MB-231 breast = test system: MDA-MB-231 breast
NCI-H226 lung = test system: NCI-H226 lung
HOP-92 NSCLC = test system: HOP-92 NSCLC
M14 melanoma = test system: M14 melanoma
HCT-116 colon = test system: HCT-116 colon
UACC-62 melanoma = test system: UACC-62 melanoma
T-47D breast = test system: T-47D breast
U251 CNS = test system: U251 CNS
LOX IMVI melanoma = test system: LOX IMVI melanoma
UO-31 renal = test system: UO-31 renal
786-0 renal = test system: 786-0 renal
COLO 205 colon = test system: COLO 205 colon
A498 renal = test system: A498 renal
SK-OV-3 ovarian = test system: SK-OV-3 ovarian
SK-MEL-28 melanoma = test system: SK-MEL-28 melanoma
SF-268 CNS = test system: SF-268 CNS
SNB-75 CNS = test system: SNB-75 CNS
TK-10 renal = test system: TK-10 renal
NCI-H522 lung = test system: NCI-H522 lung
A549 NSCLC = test system: A549 NSCLC
EKVX NSCLC = test system: EKVX NSCLC
SK-MEL-2 melanoma = test system: SK-MEL-2 melanoma
HS 578T breast = test system: HS 578T breast
HL-60(TB) leukemia = test system: HL-60(TB) leukemia
NCI-H23 lung = test system: NCI-H23 lung
SF-539 CNS = test system: SF-539 CNS
MALME-3M melanoma = test system: MALME-3M melanoma

O=C1OC(c2ccccc2)=N/C1=C\c1ccc(Cl)cc1
TGI (OVCAR-8 ovarian): > 100 µM | TGI (HOP-62 NSCLC): > 100 µM | TGI (OVCAR-4 ovarian): > 100 µM | TGI (RXF 393 renal): > 100 µM | TGI (HCT-15 colon): > 100 µM | TGI (K-562 leukemia): > 100 µM | TGI (OVCAR-5 ovarian): > 100 µM | TGI (KM12 colon): > 100 µM | TGI (RPMI-8226 leukemia): > 100 µM | TGI (SNB-19 CNS): > 100 µM | TGI (SR leukemia): > 100 µM | TGI (HT29 colon): > 100 µM | TGI (CAKI-1 renal): > 100 µM | TGI (HCC-2998 colon): > 100 µM | TGI (BT-549 breast): > 100 µM | TGI (DU-145 prostate): > 100 µM | TGI (MOLT-4 leukemia): > 100 µM | TGI (IGROV1 ovarian): > 100 µM | TGI (NCI-H460 lung): > 100 µM | TGI (UACC-257 melanoma): > 100 µM | TGI (ACHN renal): > 100 µM | TGI (NCI/ADR-RES ovarian): > 100 µM | TGI (PC-3 prostate): > 100 µM | TGI (SN12C renal): > 100 µM | TGI (MCF7 breast): > 100 µM | TGI (CCRF-CEM leukemia): > 100 µM | TGI (MDA-N): > 100 µM | TGI (SF-295 CNS): > 100 µM | TGI (SW-620 colon): > 100 µM | TGI (MDA-MB-435): > 100 µM | TGI (SK-MEL-5 melanoma): > 100 µM | TGI (OVCAR-3 ovarian): > 100 µM | TGI (MDA-MB-231 breast): > 100 µM | TGI (NCI-H226 lung): > 100 µM | TGI (HOP-92 NSCLC): > 100 µM | TGI (M14 melanoma): > 100 µM | TGI (HCT-116 colon): > 100 µM | TGI (UACC-62 melanoma): > 100 µM | TGI (T-47D breast): > 100 µM | TGI (U251 CNS): > 100 µM | TGI (LOX IMVI melanoma): > 100 µM | TGI (UO-31 renal): > 100 µM | TGI (786-0 renal): > 100 µM | TGI (COLO 205 colon): > 100 µM | TGI (A498 renal): > 100 µM | TGI (SK-OV-3 ovarian): > 100 µM | TGI (SK-MEL-28 melanoma): > 100 µM | TGI (SF-268 CNS): > 100 µM | TGI (SNB-75 CNS): > 100 µM | TGI (TK-10 renal): > 100 µM | TGI (NCI-H522 lung): > 100 µM | TGI (A549 NSCLC): > 100 µM | TGI (EKVX NSCLC): > 100 µM | TGI (SK-MEL-2 melanoma): > 100 µM | TGI (HS 578T breast): > 100 µM | TGI (HL-60(TB) leukemia): > 100 µM | TGI (NCI-H23 lung): > 100 µM

CC(C)c1cc2c(c(O)c1O)[C@@]1(C)CCCC(C)(C)C1=C(O)C2
TGI (OVCAR-8 ovarian): 6.99 µM | TGI (HOP-62 NSCLC): 13.4 µM | TGI (OVCAR-4 ovarian): 4.55 µM | TGI (RXF 393 renal): 2.96 µM | TGI (HCT-15 colon): 6.77 µM | TGI (K-562 leukemia): 4.13 µM | TGI (OVCAR-5 ovarian): 9.03 µM | TGI (KM12 colon): 5.78 µM | TGI (RPMI-8226 leukemia): 2.15 µM | TGI (SNB-19 CNS): 9.32 µM | TGI (SR leukemia): 3.21 µM | TGI (HT29 colon): 16.1 µM | TGI (CAKI-1 renal): 2.84 µM | TGI (HCC-2998 colon): 2.76 µM | TGI (BT-549 breast): 4.22 µM | TGI (DU-145 prostate): > 50 µM | TGI (MOLT-4 leukemia): 2.99 µM | TGI (IGROV1 ovarian): 2.79 µM | TGI (NCI-H460 lung): 5.89 µM | TGI (UACC-257 melanoma): 3.37 µM | TGI (ACHN renal): 5.39 µM | TGI (NCI/ADR-RES ovarian): 2 µM | TGI (PC-3 prostate): 3.51 µM | TGI (SN12C renal): > 50 µM | TGI (SF-539 CNS): 1.89 µM | TGI (MCF7 breast): 2.85 µM | TGI (CCRF-CEM leukemia): 2.12 µM | TGI (MDA-N): 6.77 µM | TGI (SF-295 CNS): 4.38 µM | TGI (SW-620 colon): 5.4 µM | TGI (MDA-MB-435): 2.77 µM | TGI (SK-MEL-5 melanoma): 2.32 µM | TGI (OVCAR-3 ovarian): 5.26 µM | TGI (MDA-MB-231 breast): > 50 µM | TGI (NCI-H226 lung): > 50 µM | TGI (HOP-92 NSCLC): 2.32 µM | TGI (M14 melanoma): 13.4 µM | TGI (HCT-116 colon): > 50 µM | TGI (UACC-62 melanoma): > 50 µM | TGI (T-47D breast): 20 µM | TGI (U251 CNS): 4.54 µM | TGI (LOX IMVI melanoma): 3.14 µM | TGI (UO-31 renal): 3.95 µM | TGI (786-0 renal): 11.8 µM | TGI (COLO 205 colon): 8.06 µM | TGI (A498 renal): 3.19 µM | TGI (SK-MEL-28 melanoma): 8.69 µM | TGI (SF-268 CNS): 5.84 µM | TGI (SNB-75 CNS): 2.56 µM | TGI (TK-10 renal): 24.2 µM | TGI (NCI-H522 lung): 3.06 µM | TGI (A549 NSCLC): 5.73 µM | TGI (MALME-3M melanoma): 3.36 µM | TGI (EKVX NSCLC): 3.56 µM | TGI (SK-MEL-2 melanoma): 2.65 µM | TGI (HS 578T breast): 13.4 µM | TGI (HL-60(TB) leukemia): 3.27 µM | TGI (NCI-H23 lung): 6.8 µM

— PubChem BioAssay (NCI)
